Results on seven compounds are retold here after PubChem BioAssay (NCI).

Several values for one entry are separate records, joined by “and”; a condition that tells them apart may be missing. Equal values may be shown once.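 Tested at 5 concentrations; 48 h exposure; 96-well plates; endpoints linearly interpolated, else capped at highest concentration. Abbreviation: GI50, concentration required for 50% inhibition of growth. TGI is the concentration that stops growth completely.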 Some results are limits rather than exact numbers.

Among the test systems are HOP-62 NSCLC; HOP-92 NSCLC; SK-MEL-28 melanoma; MOLT-4 leukemia; LOX IMVI melanoma; SK-MEL-5 melanoma; NCI-H23 lung; CAKI-1 renal; OVCAR-8 ovarian; SNB-75 CNS.
Common to all, as to test: NCI-60 cell line screen, 48 h

For `C#CCOc1ccc2ncnc(Nc3ccc(NC(=O)CCl)cc3)c2c1`, the GI50 was 13.8 µM in the assay with HOP-62 NSCLC; 12.2 µM in the assay on HOP-92 NSCLC; 14.5 µM with SK-MEL-28 melanoma; 3.19 µM in the assay with MOLT-4 leukemia; 1.5 µM in the assay on LOX IMVI melanoma; 3.87 µM in the assay with SK-MEL-5 melanoma. For the same compound, the GI50 in the assay on NCI-H23 lung is 3.85 µM; in the assay on CAKI-1 renal, 11.3 µM; in the assay with OVCAR-8 ovarian it was 5.15 µM. Moreover, the TGI in the assay on HOP-62 NSCLC was determined as 37.1 µM; in the assay on HOP-92 NSCLC, 27.9 µM; with SK-MEL-28 melanoma it was 79.6 µM; in the assay on MOLT-4 leukemia it was 17.7 µM; in the assay on LOX IMVI melanoma, 3.43 µM; in the assay with SK-MEL-5 melanoma, 15.5 µM. For the same compound, the TGI turned out to be 18.4 µM in the assay with NCI-H23 lung, 23.6 µM with CAKI-1 renal and 63.4 µM in the assay with OVCAR-8 ovarian.

As to `CCN(CC)CCCCCOc1cc(O)c2c(=O)cc(-c3ccccc3)oc2c1`, the GI50 in the assay with HOP-62 NSCLC was 2.43 µM; with SK-MEL-28 melanoma, 1.62 µM; in the assay with MOLT-4 leukemia, 3.76 µM; in the assay with LOX IMVI melanoma, 1.57 µM; with SK-MEL-5 melanoma, 1.91 µM; in the assay with SNB-75 CNS, 13 µM. Further, the GI50 with OVCAR-8 ovarian was 11.5 µM. Also, the TGI in the assay on HOP-62 NSCLC stood at 9.71 µM; in the assay on SK-MEL-28 melanoma, 3.07 µM; with MOLT-4 leukemia it was 11.2 µM; with LOX IMVI melanoma, 2.96 µM; in the assay with SK-MEL-5 melanoma, 3.83 µM; in the assay with SNB-75 CNS it was 25.6 µM. Also, the TGI in the assay with OVCAR-8 ovarian turned out to be 25.5 µM.

`COc1ccc(C2C(c3ccccc3)C(=O)N2c2cc(OC)c(OC)c(OC)c2)cc1I` (configuration not stated): the GI50 with HOP-62 NSCLC is 0.57 µM; in the assay on HOP-92 NSCLC, 0.961 µM; in the assay on SK-MEL-28 melanoma it was 2.31 µM; in the assay with MOLT-4 leukemia, 0.337 µM; in the assay with LOX IMVI melanoma, 0.457 µM; with SK-MEL-5 melanoma, 0.224 µM. The figures for the GI50 in the assay on SNB-75 CNS, in the assay on NCI-H23 lung and in the assay with OVCAR-8 ovarian were 6.01 µM, 0.623 µM and 0.407 µM, respectively. The TGI with HOP-62 NSCLC is more than 100 µM; with HOP-92 NSCLC, more than 100 µM; in the assay on SK-MEL-28 melanoma, more than 100 µM; in the assay with MOLT-4 leukemia it was more than 100 µM; in the assay with LOX IMVI melanoma it was more than 100 µM; in the assay on SK-MEL-5 melanoma it was 0.729 µM. The TGI in the assay with SNB-75 CNS, in the assay with NCI-H23 lung and with OVCAR-8 ovarian was more than 100 µM in each case.

Take `COc1ccc2c(c1OC)-c1c(c3ccc([N+](=O)[O-])cc3c(=O)n1CCCN=[N+]=[N-])C2=O`: the GI50 in the assay on HOP-62 NSCLC was 5.02 µM; in the assay with HOP-92 NSCLC, 20.3 µM; with SK-MEL-28 melanoma it was more than 100 µM; with MOLT-4 leukemia, 3.12 µM; in the assay with LOX IMVI melanoma, 5.99 µM; in the assay on SK-MEL-5 melanoma, 12.2 µM. In addition, the GI50 in the assay on NCI-H23 lung is 17.5 µM; in the assay with CAKI-1 renal, 2.55 µM; in the assay with OVCAR-8 ovarian, 21 µM. The TGI is 92.8 µM with HOP-62 NSCLC; more than 100 µM with HOP-92 NSCLC; more than 100 µM in the assay with SK-MEL-28 melanoma; more than 100 µM in the assay with MOLT-4 leukemia; more than 100 µM in the assay with LOX IMVI melanoma; more than 100 µM with SK-MEL-5 melanoma. The TGI was more than 100 µM in the assay with NCI-H23 lung, 9.73 µM in the assay on CAKI-1 renal and more than 100 µM in the assay on OVCAR-8 ovarian.

For the compound `CC(C)c1cc(CNc2nc(Nc3cc(C4CC4)[nH]n3)cc(N3CCN(C)CC3)n2)on1`, the GI50 was 0.16 µM and 0.0273 µM with HOP-92 NSCLC; 2.71 µM and 0.477 µM with MOLT-4 leukemia; > 10 µM and 1.32 µM with SK-MEL-5 melanoma; 1.54 µM and 0.173 µM in the assay on NCI-H23 lung; 1.88 µM and 1.12 µM with CAKI-1 renal; 3.27 µM and 0.42 µM in the assay with OVCAR-8 ovarian. Moreover, the TGI with HOP-92 NSCLC was 0.821 µM and 0.182 µM; in the assay with SK-MEL-28 melanoma it was > 10 µM and 4.59 µM; in the assay with MOLT-4 leukemia, > 10 µM and 8.44 µM; with SK-MEL-5 melanoma it was > 10 µM and 4.72 µM; in the assay on NCI-H23 lung, > 10 µM and 3.37 µM; in the assay on CAKI-1 renal it was > 10 µM and 4.09 µM. Further, the TGI in the assay on OVCAR-8 ovarian was > 10 µM and 14.8 µM.

On to `Cc1ccc(S(=O)(=O)NC(CCC(=O)Nc2ccccc2)C(=O)Nc2ccccc2)cc1` (configuration not stated), for which the GI50 was 0.157 µM in the assay with HOP-92 NSCLC, 0.375 µM in the assay on MOLT-4 leukemia, 0.226 µM in the assay with SK-MEL-5 melanoma and 0.5 µM with OVCAR-8 ovarian. In addition, the TGI in the assay on HOP-92 NSCLC was 0.544 µM; with MOLT-4 leukemia it was more than 100 µM; in the assay on SK-MEL-5 melanoma, 0.656 µM; with OVCAR-8 ovarian it was 2.57 µM.

In the case of `CCOC(=O)c1cc2cc(NC(=O)c3cc4cc([N+](=O)[O-])ccc4n3C)ccc2n1C`, the GI50 in the assay with HOP-62 NSCLC was 19.7 µM; with HOP-92 NSCLC it was 34.9 µM; in the assay with SK-MEL-28 melanoma, 63.6 µM; in the assay on MOLT-4 leukemia it was 30.9 µM; in the assay with LOX IMVI melanoma it was 13.1 µM; in the assay on SK-MEL-5 melanoma, 74 µM. The GI50 is 12.3 µM with NCI-H23 lung, 30.9 µM in the assay on CAKI-1 renal and 49.5 µM in the assay with OVCAR-8 ovarian. The TGI in the assay with HOP-62 NSCLC was 35.3 µM; in the assay on HOP-92 NSCLC, 85 µM; in the assay on SK-MEL-28 melanoma, more than 100 µM; in the assay with MOLT-4 leukemia, more than 100 µM; in the assay with LOX IMVI melanoma it was 28 µM; in the assay on SK-MEL-5 melanoma, more than 100 µM. Besides, the TGI in the assay on NCI-H23 lung is 37 µM; in the assay on CAKI-1 renal it was more than 100 µM; in the assay with OVCAR-8 ovarian, more than 100 µM.
